The values below come from ChEMBL document CHEMBL5107958, “Phosphoramidate Prodrugs Continue to Deliver, The Journey of Remdesivir (GS-5734) from RSV to SARS-CoV-2” (ACS Med Chem Lett, 2022).

Series [1] can be described thus: AUC (0 to infinity) in dog at 5 mg/kg, po via gavage measured for 0.25 to 24 hrs post-administration. Also on record: dose 5 mg/kg, time upper 24 hrs, time lower 0.25 hrs, route po. The series is classed as ADME, organism-based, Canis lupus familiaris. The following applies: in vivo.
A short description of series [2]: Prodrug conversion in cynomolgus monkey assessed as AUC (0 to last) of parent nucleoside compound at 5 mg/kg, po measured for 0.25 to 4 hrs post-administration. It counts as ADME, organism-based, Macaca fascicularis. Also on record: time lower 0.25 hrs, dose 5 mg/kg, time upper 4 hrs, route po. The following applies: in vivo.
Series [3] can be described thus: Prodrug conversion in dog assessed as AUC (0 to last) of parent nucleoside compound at 5 mg/kg, po via gavage measured for 0.25 to 24 hrs post-administration. The following applies: in vivo. Also on record: time upper 24 hrs, time lower 0.25 hrs, dose 5 mg/kg, route po. The series is classed as ADME, organism-based, Canis lupus familiaris.
Series [4] relates to Hepatitis C virus. Kind of series: Antiviral activity against HCV assessed as reduction in viral replication by measuring monophosphate prodrug metabolite. It counts as functional, organism-based, Hepacivirus hominis.
The nature of series [5]: AUC (0 to infinity) in cynomolgus monkey at 5 mg/kg, po measured for 0.25 to 4 hrs post-administration. The series is classed as ADME, organism-based, Macaca fascicularis. Also on record: time upper 4 hrs, dose 5 mg/kg, time lower 0.25 hrs, route po. The note with it: in vivo.
The subject of series [6] is Hepatitis C virus. In words: Antiviral activity against HCV assessed as reduction in viral replication by measuring parent nucleoside compound. The series is classed as functional, organism-based, Hepacivirus hominis.
The nature of series [7]: Volume of distribution at steady state in Beagle dog at 0.5 mg/kg, iv measured for 0.08 to 24 hrs post-dose. The series is classed as ADME, organism-based, Canis lupus familiaris. The note with it: in vivo, time 0.08-24 hrs, read-out: Vdss.
Series [8] can be described thus: AUC (0 to infinity) in Beagle dog at 3 mg/kg, po via gavage measured for 0.08 to 24 hrs post-dose. It counts as ADME, organism-based, Canis lupus familiaris. Also on record: time lower 0.08 hrs, dose 3 mg/kg, time upper 24 hrs, route po. The following applies: in vivo.
Series [9] in a line: Half life in Beagle dog at 0.5 mg/kg, iv measured for 0.08 to 24 hrs post-dose. The series is classed as ADME, organism-based, Canis lupus familiaris. The note with it: in vivo, time 0.08-24 hrs.
Series [10] is described as follows: Oral bioavailability in Beagle dog at 3 mg/kg administered via gavage measured for 0.08 to 24 hrs post-dose. The series is classed as ADME, organism-based, Canis lupus familiaris. The note with it: in vivo, time 0.08-24 hrs.
Series [11] is described as follows: AUC (0 to infinity) in Beagle dog at 0.5 mg/kg, iv measured for 0.08 to 24 hrs post-dose. The note with it: in vivo. It counts as ADME, organism-based, Canis lupus familiaris. Also on record: dose 0.5 mg/kg, time upper 24 hrs, time lower 0.08 hrs, route iv.
The nature of series [12]: AUC (0 to infinity) in overnight fasted dog at 100 mg/kg, po measured upto 24 hrs. The series is classed as ADME, organism-based, Canis lupus familiaris. On the set-up: dose 100 mg/kg, time < 24 hrs, route po. The note with it: in vivo.
Series [13] can be described thus: Prodrug conversion in overnight fasted dog assessed as AUC (0 to last) of parent nucleoside compound at 100 mg/kg, po measured upto 24 hrs. The series is classed as ADME, organism-based, Canis lupus familiaris. Also on record: dose 100 mg/kg, time < 24 hrs, route po. The following applies: in vivo.
Series [14] can be described thus: Prodrug conversion in cynomolgus monkey lung assessed as triphosphate metabolite formation at 30 mg/kg, po measured after 24 hrs. The series is classed as ADME, organism-based, Macaca fascicularis. The note with it: in vivo.
Series [15] in a line: Prodrug conversion in cynomolgus monkey assessed as AUC (0 to last) of parent nucleoside compound at 30 mg/kg, po. The series is classed as ADME, organism-based, Macaca fascicularis. Also on record: time 0 - last, dose 30 mg/kg, route po. The following applies: in vivo.
Series [16] in a line: AUC (0 to infinity) in cynomolgus monkey at 30 mg/kg, po. It counts as ADME, organism-based, Macaca fascicularis. On the set-up: time infinity, dose 30 mg/kg, route po. The note with it: in vivo.
The test system of the next series is SARS-CoV. Kind of series: Antiviral activity against SARS-CoV infected in HAE cells assessed as reduction in viral replication at MOI of 0.5 preincubated for 3 hrs followed by virus removal measured after 48 hrs by Hoechst 33258 staining based assay. The series is classed as functional, organism-based. The following applies: Severe acute respiratory syndrome-related coronavirus.

The test system of series [17] is SARS-CoV-2. Kind of series: Antiviral activity against SARS-CoV-2 infected in human A549 cells expressing hACE2 assessed as reduction in viral replication at MOI of 0.025 incubated for 48 hrs by luciferase based assay. The series is classed as functional, organism-based. The following applies: Severe acute respiratory syndrome coronavirus 2, A549, 48 h.
Series [18] has as its system Ebolavirus. In words: Antiviral activity against Ebola infected in human macrophages assessed as reduction in viral replication. The series is classed as functional, organism-based. The note with it: Orthoebolavirus, Macrophage.
For series [19], the system named is Nipah virus. Kind of series: Antiviral activity against Nipah M1999 infected in human HeLa cells assessed as reduction in viral replication incubated for 48 to 144 hrs by reporter virus assay. It counts as functional, organism-based. The note with it: Henipavirus nipahense.
For series [20], the system named is Measles morbillivirus. In words: Antiviral activity against Measles Rec.rMVEZGFP(3) infected in human HeLa cells assessed as reduction in viral replication incubated for 48 to 144 hrs by fluorescence based assay. It counts as functional, organism-based.
The test system of series [21] is Measles morbillivirus. Kind of series: Antiviral activity against Measles virus infected in HMVEC cells assessed as reduction in viral replication. The series is classed as functional, organism-based.
Series [22] concerns SARS-CoV-2. Kind of series: Antiviral activity against SARS-CoV-2 infected in human Calu-3 2B4 cells assessed as reduction in viral replication at MOI of 0.01 preincubated for 2 hrs followed by viral infection for 30 mins and subsequent virus removal and addition of medium containing compound measured after 72 hrs by RT-qPCR analysis. The note with it: Severe acute respiratory syndrome coronavirus 2, Calu-3 2B4. The series is classed as functional, organism-based. (In general: In qPCR the cycle at which signal appears reflects the starting amount.)

Series [23] concerns SARS-CoV-2. In words: Antiviral activity against SARS-CoV-2 infected in African green monkey Vero E6 cells assessed as reduction in viral replication. The series is classed as functional, organism-based. The following applies: Severe acute respiratory syndrome coronavirus 2, Vero C1008.
In series [24] the test system is SARS-CoV-2. In words: Antiviral activity against SARS-CoV-2 infected in human Huh-7 cells assessed as reduction in virus-induced cytopathic effect at MOI of 0.0037 measured after 4 days by MTS assay. The series is classed as functional, organism-based. The following applies: Severe acute respiratory syndrome coronavirus 2, Huh-7, 96 h. (In general: Cytopathic effects are the visible damage that an infection or toxin causes in cultured cells.)

In series [25] the test system is Middle East respiratory syndrome-related coronavirus. Kind of series: Antiviral activity against MERS-CoV infected in HAE cells assessed as reduction in viral replication at MOI of 0.5 incubated for 3 hrs followed by virus removal measured after 48 hrs by Hoechst 33258 staining based assay. It counts as functional, organism-based.
The test system of series [26] is Nipah virus. Kind of series: Antiviral activity against Nipah B2004 infected in human NCI-H358 cells assessed as reduction in viral replication incubated for 48 to 144 hrs by reporter virus assay. The series is classed as functional, organism-based. The note with it: Henipavirus nipahense.
Series [27] relates to Ebolavirus. Kind of series: Antiviral activity against Ebola infected in human HeLa cells assessed as reduction in viral replication. It counts as functional, organism-based. The note with it: Orthoebolavirus.
The test system of series [28] is SARS-CoV-2. Kind of series: Antiviral activity against SARS-CoV-2 infected in human Caco-2 cells assessed as reduction in viral replication at MOI of 0.01 measured after 72 hrs by qRT-PCR analysis. The series is classed as functional, organism-based. The following applies: Severe acute respiratory syndrome coronavirus 2, Caco-2, 72 h.
For series [29], the system named is SARS-CoV-2. Kind of series: Antiviral activity against SARS-CoV-2 infected in human PSC-derived lung epithelial cells assessed as reduction in viral replication. The following applies: Severe acute respiratory syndrome coronavirus 2, Epithelial cell. It counts as functional, organism-based.
In series [30] the test system is SARS-CoV-2. Kind of series: Antiviral activity against SARS-CoV-2 infected in human Calu-3 cells assessed as reduction in viral replication at MOI of 0.01 measured after 72 hrs by qRT-PCR analysis. It counts as functional, organism-based. The note with it: Severe acute respiratory syndrome coronavirus 2, Calu-3, 72 h.
The test system of a further series is Marburgvirus. In words: Antiviral activity against MARV Rec. Bat371-GFP infected in human Huh-7 cells assessed as reduction in viral replication incubated for 48 to 144 hrs by fluorescence based assay. The series is classed as functional, organism-based. The note with it: Orthomarburgvirus.
Series [31] concerns Hepatitis C virus. In words: Antiviral activity against HCV infected in human Huh-7 cells expressing Ces1 assessed as reduction in viral replication by measuring monophosphate prodrug metabolite. The series is classed as functional, organism-based, Hepacivirus hominis.

On to `CC(C)OC(=O)[C@H](C)N[P@](=O)(OC[C@H]1O[C@@H](n2ccc(=O)[nH]c2=O)[C@@](C)(F)[C@@H]1O)Oc1ccccc1`, for which the results for the AUC(0-inf) in series [1] and in series [5] were 0.78 µM·h and 0.16 µM·h, respectively. The figures for the AUClast in [2] and in series [3] were 0.12 µM·h and 27 µM·h, respectively. Moreover, the results for the half-maximal effective concentration (EC50) in the series on Hepatitis C virus [4] and with Hepatitis C virus [6] were 420 nM and over 50000 nM, respectively.
Consider `CC(C)OC(=O)[C@H](C)N[P@](=O)(OC[C@H]1O[C@@](C#N)(c2cnc3c(N)ncnn23)[C@](C)(O)[C@@H]1OC(=O)C(C)C)Oc1ccccc1`, for which the EC50 (in general, the midpoint of the concentration-response curve) in the series on Hepatitis C virus [4] was 460 nM; in the series with Hepatitis C virus [6], over 89000 nM.
Regarding `CCOC(=O)[C@H](C)N[P@@]1(=O)OC[C@H]2O[C@@H](n3cnc4c(OCC)nc(N)nc43)[C@](C)(F)[C@@H]2O1`, the Vd in series [7] was 0.5 L/kg. Moreover, the AUC(0-inf) (commonly total exposure, with the tail of the curve extrapolated) in series [8] amounted to 1.6 µM·h; in series [11] it was 0.61 µM·h. Further, the half-life (usually the time needed for the level to fall by half in the phase considered) in series [9] was determined as 18 min. The bioavailability (as a rule, the share of a dose that reaches the circulation, judged against a reference dose that is usually intravenous) in series [10] was determined as 44%.
In series [12], `COC(=O)[C@H](C)NP(=O)(OC[C@@H]1C=C[C@H](n2cc(C)c(=O)[nH]c2=O)O1)Oc1ccc(Br)cc1` (stereo not given in full) returned an AUC(0-inf) of 23.1 µM·h. Besides, in series [13], the AUClast was found to be 262 µM·h.
Turning to `CNc1nc(N)nc2c1ncn2[C@@H]1O[C@H](COP(=O)(N[C@@H](C)C(=O)OC(C)C)Oc2ccccc2)[C@@H](O)[C@@]1(C)F` (stereo not given in full) [BEMNIFOSBUVIR], the EC50 is 13 nM in the series with Hepatitis C virus [4] and 69000 nM in the series with Hepatitis C virus [6].
Turning to `CNc1nc(N)nc2c1ncn2[C@@H]1O[C@H](CO[P@@](=O)(N[C@@H](C)C(=O)OC(C)C)Oc2ccccc2)[C@@H](O)[C@@]1(C)F` [BEMNIFOSBUVIR], the Drug metabolism in [14] turned out to be 0.14 nmol/g. In addition, the AUClast in [15] is 1.56 µM·h. The compound further gave an AUC(0-inf) in [16] of 0.44 µM·h.
Regarding `COc1nc(N)nc2c1ncn2[C@@H]1O[C@H](COP(=O)(N[C@@H](C)C(=O)OCC(C)(C)C)Oc2cccc3ccccc23)[C@@H](O)[C@@]1(C)O` (stereo not given in full) [BMS-986094], the concentration giving a half-maximal response (EC50) was determined as 35 nM in the series with Hepatitis C virus [4] and 3500 nM with Hepatitis C virus [6]. Further, the AUC(0-inf) in series [16] was 0.026 µM·h.
`N#C[C@@]1(c2ccc3c(N)ncnn23)O[C@H](CO)[C@@H](O)[C@H]1O` [GS-441524]: the EC50 with SARS-CoV was 180 nM; in the series with SARS-CoV-2 [17], 869 nM; in the series on Ebolavirus [18] it was over 20000 nM; with Nipah virus [19], 2120 nM; in the series on Measles morbillivirus [20], 1000 nM; in the series on Measles morbillivirus [21], 770 nM. The EC50 with SARS-CoV-2 [22] is 620 nM; in the series on SARS-CoV-2 [23], 470 nM; in the series with SARS-CoV-2 [24], 1100 nM; in series [25] it was 860 nM; in the series with Nipah virus [26] it was 2460 nM; in the series with Ebolavirus [27], over 20000 nM. Also, the EC50 in the series on SARS-CoV-2 [28] turned out to be 80 nM; in the series with SARS-CoV-2 [29], 740 nM; in the series on SARS-CoV-2 [30] it was 250 nM; in the series with Marburgvirus, 1900 nM.
Consider `CC(C)OC(=O)[C@@H](C)N[P@@](=O)(OC[C@H]1O[C@@H](n2ccc(=O)[nH]c2=O)[C@](C)(Cl)[C@@H]1O)Oc1ccccc1` [UPRIFOSBUVIR], for which the EC50 in the series on Hepatitis C virus [31] turned out to be 320 nM.
